Reference: publication PMC10714399, “Open Source Antibiotics: Simple Diarylimidazoles Are Potent against Methicillin-Resistant Staphylococcus aureus” (ACS Infectious Diseases, 2023)
Converted amounts (≈) assume the structure as drawn.

Tests used:
[1] = system: Staphylococcus aureus ATCC 43300 MRSA; experiment: CO-ADD antibacterial assay (growth inhibition, MIC), MRSA; type: cell-based; conditions: read-out: MRSA MIC (CO-ADD)
Procedure: Hit Confirmation of active compounds by whole cell growth inhibition assays was conducted as an 8-point dose response to determine the Minimum Inhibitory Concentration (MIC), in duplicate (n=2). The inhibition of growth is measured against those microorganisms that […]
Included in the Hit Confirmation were 5 bacteria: Escherichia coli, Klebsiella pneumoniae, Acinetobacter baumannii, Pseudomonas aeruginosa and Staphylococcus aureus, and 2 fungi Candida albicans and Cryptococcus neoformans. […]
Assay Parameters Bacteria Fungi HEK293 Haemolysis […]
Duplicate (n=2) Duplicate (n=2) Duplicate (n=2) Duplicate (n=2)
QC Control MIC: Control MIC: Control CC50: Control HC10:
Non-Binding Non-Binding TC, 384-well Polypropylene
Plates Surface (NBS), Surface (NBS), black wall/clear 384-well and 384-well plate 384-well plate bottom polystyrene 384-
Cation-adjusted Yeast Nitrogen DMEM
Media Mueller Hinton Base supplemented 0.9% NaCl
Hit Confirmation outcomes are detailed in individual Project reports, personalised for each Project Submission for each CO-ADD user.
Please see your data sheet with file extension P0XXX_HC_data.xlsx, for example CO-ADD Project P0100, P0100_HC_data.xlsx
Study: HC_data ID: HC-Procedures & Materials
Date: Last updated June 2018 Confidential Page 3 of 11
(1 picture or pasted object on this page, not shown here)
Samples were provided by the collaborator and stored frozen at -20 °C. Samples were prepared in DMSO and water to a final testing concentration of 32 µg/mL or 20 µM (unless otherwise indicated in the data sheet) and serially diluted 1:2 fold for 8 times. Each sample concentration was prepared in 384-well plates, non-binding surface plate (NBS; Corning 3640) for each bacterial/fungal strain, tissue-culture treated (TC-treated; Corning 3712/3764) black for mammalian cell types and polypropylene 384-well (PP; Corning 3657) for haemolysis assays, all in duplicate (n=2), and keeping the final DMSO concentration to a maximum of 0.5%. All the sample preparation was done using liquid handling robots. […]
detailed in the Data sheet for the individual Project.
All bacteria were cultured in Cation-adjusted Mueller Hinton broth (CAMHB) at 37 °C overnight. A sample of each culture was then diluted 40-fold in fresh broth and incubated at 37 °C for 1.5-3 h. The resultant mid-log phase cultures were diluted (CFU/mL measured by OD600), then added to each well of the compound containing plates, giving a cell density of 5×10^5 CFU/mL and a total volume of 50 µL. All the plates were covered and incubated at 37 °C for 18 h without shaking.
Inhibition of bacterial growth was determined measuring absorbance at 600 nm (OD600), using a Tecan M1000 Pro monochromator plate reader. The percentage of growth inhibition was calculated for each well, using the negative control (media only) and positive control (bacteria without inhibitors) on the same plate as references.
The percentage of growth inhibition was calculated for each well, using the negative control (media only) and positive control (bacteria without inhibitors) on the same plate. The MIC […]
by an inhibition ≥ 80%. In addition, the maximal percentage of growth inhibition is reported as DMax, indicating any compounds with partial activity.
Date: Last updated June 2018 Confidential Page 5 of 11
Material Code Brand/Supplier Cat No.
Compound preparation plate, Polypropylene PP Corning 3364
Assay Plates – Antimicrobial
Non-binding surface NBS 384w Corning 3640
Assay Plates – Cytotoxicity
Tissue culture treated Black/Clear bottom 384w Corning 3712
Assay Plates - Haemolysis PP-Haem Corning 3657 […]
Growth media - bacteria CAMHB Bacto Laboratories 212322
Culture agar - fungi YPD Becton Dickinson 242720
Growth media - fungi YNB Becton Dickinson 233520
Resazurin Sigma-Aldrich R7017
Dulbecco's Modified Eagle Medium DMEM Life Technologies 11995-073
Foetal Bovine Serum FBS Bovogen FFBS-500
0.9% NaCl Saline Baxter AHF7124
Sample Name Sample ID MW Conc. Solvent Source […]

[2] = system: S. aureus ATCC 25923 (methicillin-susceptible); experiment: In vitro antibacterial activity, MIC (UCL), MSSA; type: cell-based, Staphylococcus aureus; conditions: Staphylococcus aureus; read-out: MSSA MIC (UCL)
Outline: (§1)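 Two-fold dilution MIC testing, 32–0.03 μg/mL, isosensitest broth medium. Cultures standardized by absorbance at 600 nm (0.1, ~1 × 10^8 CFU/mL) before 1:100 dilution; vancomycin included for quality control.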

[3] = system: Staphylococcus aureus NCTC 13373 (mecA-positive; methicillin-resistant); experiment: In vitro antibacterial activity, MIC (UCL School of Pharmacy assay), MRSA; type: cell-based; conditions: Staphylococcus aureus, UCL; read-out: MRSA MIC (UCL)
Outline: as §1

[4] = Human liver microsome intrinsic clearance; type: in vitro ADME; conditions: human liver microsomes, NEU
[5] = HEK293 toxicity, 96-well dose-response (UCL; MTT or resazurin, with or without recovery); type: cell-based, human; conditions: human, HEK293 cells; read-out: HEK293 CC50
Procedure: The importance of balancing potency vs MRSA and cytotoxicity led us to examine a subset of compounds more thoroughly for toxicity against human embryonic kidney cell line HEK293. […] Dmax is a parameter that quantifies toxicity at the highest tested concentration (32 μg/mL for all compounds), calculated as reciprocal percentage of viable cells (100 – viability%), where cells either were allowed to recover or viability was measured immediately after treatment. […] Our efforts focused on trying to replicate the original toxicity experiments (by CO-ADD) with tamoxifen using a protocol modified for use with 96-well plates. Given the variability of protocols and results in the literature,[28] it was important to compare with a standard protocol we have reliably used in our own laboratories.[29]−[33] […] Truly “non-toxic” compounds might be expected to show Dmax < 50% for all experiment variations, e.g., 861. […] A large spread of Dmax values comparing recovery and non-recovery conditions larger than 20% is perhaps indicative of a mechanism of toxicity that persists beyond exposure, i.e., cytotoxic compounds that continue to induce toxicity as cells recover and restart dividing, for example, compounds 865, 870, 871, 980, and 981. […] This variability could be driven by interference of the compounds with the fluorescence readout or resorufin build-up as previously described.[27]
HEK293 cells (ATCC, UK) at passage 32 were a kind gift from Dr. Ben Allsop from the Translational Research Office at University College London. Cells were tested for mycoplasma using a MycoAlert Detection Kit (Lonza, Switzerland) as per manufacturer instructions, frozen stocks were stored in liquid nitrogen, and cells were re-tested whenever a new aliquot was thawed.
Cells were maintained in DMEM (Sigma-Aldrich, UK) supplemented with 10% heat-inactivated FBS (Sigma-Aldrich, UK), 1% GlutaMax (ThermoFisher, UK), and 1% sodium pyruvate (Lonza, UK) without antibiotics in an incubator at 37 °C and 5% CO2. Media was changed every 2 days, and cells were passaged every 3–4 days at a subcultivation ratio of 1:10, by detaching the cells with phenol-free TrypLE Express (ThermoFisher, UK), after washing with HBSS Ca^2+/Mg^2+ (ThermoFisher, UK). Up to 55 passages were used throughout the experiments.
(a) Cell seeding: At subculture, a dilute solution of cells was counted using Trypan Blue (Sigma-Aldrich, UK) and a hemocytometer. Cells were further diluted to 7000 or 50 000 cells/mL for experiments.
For recovery experiments, 700 cells (100 μL) were seeded in 96-well plates and incubated for 48 h while cells reached exponential phase.
For non-recovery experiments, 5000 cells (100 μL) were seeded in 96-well plates and incubated for 48 h while cells reached confluence. This is the same number of cells as per the CO-ADD protocol where 384-well plates were used, but we extended the growth time to 48 h to produce a similar confluency.
Stock solutions were diluted 100 times (to 1% DMSO) to 32 μg/mL in full medium (vortexed briefly) and then serially diluted using a digital pipet (Explorer, Eppendorf, Germany) at a dilution factor of 2 to a final concentration of […].
(c) Dosing experiments: At the specified time after seeding, media was removed from cells, cells were washed with HBSS Ca^2+/Mg^2+ (100 μL), and 100 μL of diluted compounds were added as per Supporting Information - Biology, Figure S4, and incubated for 24 h.
After treatment, solutions were removed, and cells were washed with HBSS Ca^2+/Mg^2+. For non-recovery experiments, viability was determined immediately as described below.
For recovery experiments, fresh media was added to plates (100 μL) and cells were returned to the incubator for another 72 h, after which viability was recorded as described below.
i. MTT assay: 3-[4,5-Dimethylthiazol-2-yl]-2,5-diphenyltetrazolium bromide (MTT) (Sigma-Aldrich, UK) was dissolved in sterile PBS at 5 mg/mL with sonication (20 min), protected from light. […]

[6] = system: Enterococcus faecalis ATCC 51299 (vanA-positive; vancomycin-resistant); experiment: In vitro antibacterial activity, MIC (UCL), VRE; type: cell-based; conditions: read-out: VRE MIC (UCL)
Outline: as §1

[7] = Rat hepatocyte intrinsic clearance; type: in vitro ADME; conditions: rat hepatocytes, NEU
Aqueous solubility = type: physicochemical; conditions: NEU
[8] = Human plasma protein binding (PPB); type: in vitro ADME; conditions: human, plasma, human plasma, NEU; read-out: Human PPB (NEU) (converted)

| Structure (SMILES) | MIC [1] | MIC [2] | MIC [3] | HLM CLint (NEU) [4] | MIC [6] | Rat Hep CLint (NEU) [7] | Aqueous Solubility (NEU) (Aqueous solubility) | fraction unbound [8] | solubility (Aqueous solubility; thermodynamic from solid, read-out: Aqueous Solubility (NEU)) | CC50 at 24 h [5] |
| --- | --- | --- | --- | --- | --- | --- | --- | --- | --- | --- |
| COc1ccc(-c2c(-c3ccccn3)nc3n2CCC3)cc1OC [OSA_000820] | 32 µg/mL (≈ 99.6 µM) | > 32 µg/mL | > 32 µg/mL |  |  |  |  |  |  |  |
| c1ccc(-c2nc3n(c2-c2ccc4ccoc4c2)CCC3)nc1 [OSA_000829] | 4 µg/mL (≈ 13.3 µM) |  |  |  |  |  |  |  |  |  |

Now from value to compound, other results behind:

| MIC [1] | MIC [2] | MIC [3] | HLM CLint (NEU) [4] | MIC [6] | Rat Hep CLint (NEU) [7] | Aqueous Solubility (NEU) (Aqueous solubility) | fraction unbound [8] | solubility (Aqueous solubility; thermodynamic from solid, read-out: Aqueous Solubility (NEU)) | Structure (SMILES) | CC50 at 24 h [5] |
| --- | --- | --- | --- | --- | --- | --- | --- | --- | --- | --- |
| 4 µg/mL (≈ 12.6 µM) |  |  |  |  |  |  |  |  | c1ccc(-c2nc3n(c2-c2ccc4ccsc4c2)CCC3)nc1 [OSA_000830] |  |
|  | 1 µg/mL (≈ 3.63 µM) | 4 µg/mL (≈ 14.5 µM) | 82 uL/min/mg protein | 16 µg/mL (≈ 58.1 µM) | 49.2 uL/min/10x6 cells | 32 µM | 0.084 |  | Cc1ccc(-c2c(-c3ccccn3)nc3n2CCC3)cc1 [OSA_000865] | 2.1 µg/mL (≈ 7.63 µM) |
|  |  | 32 µg/mL (≈ 122 µM) | 64 uL/min/mg protein | > 32 µg/mL | 25.9 uL/min/10x6 cells |  | 0.15 | 179 µM (≈ 46.8 µg/mL) | c1ccc(-c2c(-c3ccccn3)nc3n2CCC3)cc1 [OSA_000870] | 3.6 µg/mL (≈ 13.8 µM) |
